Values of other authors as cited in patent US20210259278A1, “CHEWING GUM CONTAINING VITAMIN C” (priority 2018, published 2021).

Test system: nausea in humans

In the case of O=C1O[C@H]([C@@H](O)CO)C(O)=C1O [vitamin C, L-(+)-ascorbic acid], the treatment of nausea (administration of vitamin C, for example in connection with seasickness) is listed as “found to be effective” and the “prevention of the occurrence of nausea in all test subjects” value (vitamin C alone) is listed as “could not reliably prevent the occurrence of nausea in all test subjects”.
